In test [1] the test system is Mus musculus. Put plainly: Compound was evaluated in vivo for its effective dose at which half of the mice were effected using Nilsen assay (NA) by administering the compound Subcutaneously. The test is classed as functional. The settings on record: sc.
Test [2] relates to Mus musculus. Put plainly: Compound was evaluated in vivo for its effective dose at which half of the mice were effected using hotplate assay (HPA) by administering the compound subcutaneously. The class given is functional. The settings on record: sc.
Test [3] addresses T1, Opioid receptor (Rattus norvegicus, UniProt P33533+P34975+P33535). The class given is cell membranes, Brain, Membrane.
The target in test [4] is T1, Opioid receptor. The class given is cell membranes, Brain, Membrane. The source holds these as a separate data set.
In test [5] the test system is Mus musculus. Put plainly: Compound was evaluated in vivo for its effective dose at which half of the mice were effected using Nilsen assay (NA) by administering the compound perorally (po). The test is classed as functional.
For test [6], the system named is Mus musculus. Put plainly: Compound was evaluated in vivo for its effective dose at which half of the mice were effected using hotplate assay (HPA) by administering the compound perorally (po). The test is classed as functional.
Test [7] has as its system Oryctolagus cuniculus. Put plainly: Compound was evaluated in vivo for the respiratory activity in four conscious rabbits. The percent change in respiration rate in comparison to the 10-minute period prior to the injection, dose 0.08 kg/uM. The test is classed as functional.
The test system of test [8] is Oryctolagus cuniculus. Put plainly: Compound was evaluated in vivo for the respiratory activity in four conscious rabbits. The percent change of the respiratory volume in comparison to the 10-minute prior to the injection, dose 0.08 kg/uM. The test is classed as functional.
The subject of test [9] is Mus musculus. Put plainly: In vivo inhibition of subcutaneously administered naloxone-elicited opioid type withdrawal jumping (IWJ) after 72 hours in physically dependent male mice (strain Fullinsdorf-Albino SPF), dose 0.08 kg/uM. The class given is functional. The settings on record: sc.
In test [10] the test system is Mus musculus. The experiment in a line: In vivo inhibition of subcutaneously administered naloxone-elicited opioid type withdrawal jumping (IWJ) after 72 hours in physically dependent male mice (strain Fullinsdorf-Albino SPF), dose 0.017 g/uM. The settings on record: sc. The test is classed as functional.
In test [11] the test system is Oryctolagus cuniculus. The experiment in a line: Compound was evaluated in vivo for the respiratory activity in four conscious rabbits. The percent change in respiration rate in comparison to the 10-minute period prior to the injection, dose 0.017 g/uM. The test is classed as functional.
Test [12] relates to Oryctolagus cuniculus. The experiment in a line: Compound was evaluated in vivo for the respiratory activity in four conscious rabbits. The percent change of the respiratory volume in comparison to the 10-minute prior to the injection, dose 0.017 g/uM. The class given is functional.
Test [13] deals with Mus musculus. The experiment in a line: Compound was evaluated in vivo for its effective dose at which half of the mice were effected using hotplate assay (HPA) by administering the compound perorally (po). The test is classed as functional.
The subject of test [14] is Mus musculus. The experiment in a line: Compound was evaluated in vivo for its effective dose at which half of the mice were effected using hotplate assay (HPA) by administering the compound subcutaneously. The class given is functional. The settings on record: sc.
The subject of test [15] is Mus musculus. The experiment in a line: Compound was evaluated in vivo for its effective dose at which half of the mice were effected using Nilsen assay (NA) by administering the compound perorally (po). The class given is functional.
The test system of test [16] is Mus musculus. Put plainly: In vivo inhibition of subcutaneously administered naloxone-elicited opioid type withdrawal jumping (IWJ) after 72 hours in physically dependent male mice (strain Fullinsdorf-Albino SPF). Dose 0.005 g/uM. The class given is functional. Conditions: sc.
Test [17] deals with Oryctolagus cuniculus. The experiment in a line: Compound was evaluated in vivo for the respiratory activity in four conscious rabbits. The percent change in respiration rate in comparison to the 10-minute period prior to the injection, dose 0.005 g/uM. The class given is functional.
The test system of test [18] is Oryctolagus cuniculus. Put plainly: Compound was evaluated in vivo for the respiratory activity in four conscious rabbits. The percent change of the respiratory volume in comparison to the 10-minute prior to the injection, dose 0.005 g/uM. The class given is functional.
Test [19] has as its system Mus musculus. The experiment in a line: In vivo inhibition of subcutaneously administered naloxone-elicited opioid type withdrawal jumping (IWJ) after 72 hours in physically dependent male mice (strain Fullinsdorf-Albino SPF). The test is classed as functional. The settings on record: sc.
Test [20] deals with Oryctolagus cuniculus. Put plainly: Compound was evaluated in vivo for the respiratory activity in four conscious rabbits. The percent change in respiration rate in comparison to the 10-minute period prior to the injection, dose 0.67 kg/uM. The class given is functional.
Test [21] deals with Oryctolagus cuniculus. The experiment in a line: Compound was evaluated in vivo for the respiratory activity in four conscious rabbits. The percent change of the respiratory volume in comparison to the 10-minute prior to the injection, dose 0.67 kg/uM. The test is classed as functional.
Test [22] deals with Mus musculus. The experiment in a line: In vivo inhibition of subcutaneously administered naloxone-elicited opioid type withdrawal jumping (IWJ) after 72 hours in physically dependent male mice (strain Fullinsdorf-Albino SPF), dose 0.17 kg/uM. The class given is functional. The settings on record: sc.
Test [23] relates to Oryctolagus cuniculus. Put plainly: Compound was evaluated in vivo for the respiratory activity in four conscious rabbits. The percent change in respiration rate in comparison to the 10-minute period prior to the injection, dose 0.17 kg/uM. The class given is functional.
Test [24] deals with Oryctolagus cuniculus. Put plainly: Compound was evaluated in vivo for the respiratory activity in four conscious rabbits. The percent change of the respiratory volume in comparison to the 10-minute prior to the injection, dose 0.17 kg/uM. The test is classed as functional.
For test [25], the system named is Mus musculus. The experiment in a line: In vivo inhibition of subcutaneously administered naloxone-elicited opioid type withdrawal jumping (IWJ) after 72 hours in physically dependent male mice (strain Fullinsdorf-Albino SPF). Dose 0.41 g/uM. The test is classed as functional. Conditions: sc.
Test [26] relates to Oryctolagus cuniculus. Put plainly: Compound was evaluated in vivo for the respiratory activity in four conscious rabbits. The percent change in respiration rate in comparison to the 10-minute period prior to the injection, dose 0.41 g/uM. The test is classed as functional.
Test [27] concerns Oryctolagus cuniculus. Put plainly: Compound was evaluated in vivo for the respiratory activity in four conscious rabbits. The percent change of the respiratory volume in comparison to the 10-minute prior to the injection, dose 0.41 g/uM. The test is classed as functional.
The subject of test [28] is Oryctolagus cuniculus. The experiment in a line: Compound was evaluated in vivo for the respiratory activity in four conscious rabbits. The percent change in respiration rate in comparison to the 10-minute period prior to the injection, dose 0.03 kg/uM. The test is classed as functional.
Test [29] has as its system Oryctolagus cuniculus. The experiment in a line: Compound was evaluated in vivo for the respiratory activity in four conscious rabbits. The percent change of the respiratory volume in comparison to the 10-minute prior to the injection, dose 0.03 kg/uM. The test is classed as functional.
Test [30] is filed under the species Mus musculus. Put plainly: animal or person. The settings on record: sc, 72 h.
Test [31] deals with Mus musculus. Put plainly: In vivo inhibition of subcutaneously administered naloxone-elicited opioid type withdrawal jumping (IWJ) after 72 hours in physically dependent male mice (strain Fullinsdorf-Albino SPF), dose 0.18 kg/uM. The class given is functional. Conditions: sc.
Test [32] deals with Oryctolagus cuniculus. Put plainly: Compound was evaluated in vivo for the respiratory activity in four conscious rabbits. The percent change in respiration rate in comparison to the 10-minute period prior to the injection, dose 0.18 kg/uM. The test is classed as functional.
For test [33], the system named is Oryctolagus cuniculus. The experiment in a line: Compound was evaluated in vivo for the respiratory activity in four conscious rabbits. The percent change of the respiratory volume in comparison to the 10-minute prior to the injection, dose 0.18 kg/uM. The test is classed as functional.

The structures appear in SMILES notation.

What is called ED50 is the midpoint of the dose-response relation. A low value points to an effect at a small dose. As usually defined, the IC50 is the midpoint of a concentration-inhibition curve. A high value points to weaker potency. Turning to `CN1CC[C@]23CC(=O)CC[C@@]2(O)[C@H]1Cc1ccccc13`, the values for the ED50 in [1] and in [2] were 2 µmol/kg and 1.8 µmol/kg, respectively. In addition, the values for the IC50 in test [3] and in test [4] were 0.3 nM and 12 nM, respectively.
Regarding `COc1ccc2c(c1O)[C@]13CCN(C)[C@H](C2)[C@]1(OC)CCC(=O)C3`, the ED50 was determined as 0.5 µmol/kg in [1], 5.4 µmol/kg in [5], 2.4 µmol/kg in [6] and 0.8 µmol/kg in [2]. Also, the values for the IC50 in test [3] and in test [4] were 0.5 nM and 11 nM, respectively.
Turning to `COc1cccc2c1[C@]13CCN(C)[C@H](C2)[C@]1(OC)CCC(=O)C3`, the ED50 is 0.06 µmol/kg in test [1]; 1.6 µmol/kg in test [5]; 1.1 µmol/kg in [6]; 0.06 µmol/kg in test [2]; 2.4 µmol/kg in [9]. In addition, the IC50 in [3] came to 0.3 nM; in [4], 3.5 nM. The Change in test [7] is -66 µM/kg; in test [8], -64%.
Consider `CN1CC[C@]23CC(=O)CC[C@@]2(O)[C@H]1Cc1cccc(O)c13`, for which the ED50 in [6] stood at 3.5 µmol/kg; in test [2], 2 µmol/kg. In addition, the figures for the IC50 in test [3] and in [4] were 0.2 nM and 3.4 nM, respectively.
As to `COc1ccc2c(c1OC)[C@]13CCN(C)[C@H](C2)[C@]1(OC)CCC(=O)C3`, the ED50 in test [1] was determined as 0.05 µmol/kg; in [5], 0.6 µmol/kg; in test [6] it was 0.3 µmol/kg; in [2] it was 0.06 µmol/kg; in test [10], 1.6 µmol/kg. The IC50 worked out at 0.085 nM in test [3] and 0.85 nM in [4]. For the same compound, the Change is -50% in test [11] and -48% in test [12].
Regarding `COc1cccc2c1[C@]13CCN(C)[C@H](C2)[C@]1(O)CCC(=O)C3`, the ED50 is 5 µmol/kg in [6] and 0.5 µmol/kg in test [2]. Also, the IC50 in [3] worked out at 0.75 nM; in [4], 3.7 nM.
`CN1CC[C@]23c4c5ccc(O)c4O[C@H]2C(=O)CC[C@@]3(O)[C@H]1C5` [OXYMORPHONE]: the ED50 in test [13] came out at 3 µmol/kg; in [14] it was 0.3 µmol/kg.
With `Br.CO[C@@]12CCC(=O)[C@@H]3Oc4c(O)ccc5c4[C@@]31CCN(C)C2C5`, the ED50 in test [1] came to 0.02 µmol/kg; in [15], 0.5 µmol/kg; in [13] it was 0.5 µmol/kg; in test [14], 0.008 µmol/kg; in test [16], 0.08 µmol/kg. Besides, the IC50 turned out to be 0.003 nM in test [3] and 0.08 nM in test [4]. The Change in [17] was -33%; in [18], -26%.
Turning to `COc1ccc2c(c1OC)[C@]13CCN(C)[C@H](C2)[C@]1(O)CCC(=O)C3`, the ED50 was 0.3 µmol/kg in test [1] and 0.4 µmol/kg in test [2]. The IC50 in [3] came out at 0.5 nM; in test [4] it was 1.2 nM.
For the compound `CO[C@@]12CCC(=O)[C@@H]3Oc4cccc5c4[C@@]31CCN(C)[C@@H]2C5`, the ED50 was determined as 0.3 µmol/kg in test [1]; 4.7 µmol/kg in [15]; 2.8 µmol/kg in test [13]; 0.3 µmol/kg in test [14]; 14 µmol/kg in [19]. For the same compound, the IC50 is listed as 0.2 nM in [3] and 16 nM in test [4]. Further, the Change is -75% in [20] and -68% in test [21].
`CN1CC[C@]23c4c5cccc4O[C@H]2C(=O)CC[C@@]3(O)[C@H]1C5`: the ED50 in test [13] amounted to 31 µmol/kg; in test [14], 1.6 µmol/kg. Further, the values for the IC50 in [3] and in [4] were 1.4 nM and 16 nM, respectively.
As to `CO[C@@]12CCC(=O)C[C@@]13CCN(C)[C@@H]2Cc1cccc(O)c13`, the ED50 in test [1] is 0.4 µmol/kg; in test [5] it was 1 µmol/kg; in [6], 1.2 µmol/kg; in test [2], 0.5 µmol/kg; in test [22] it was 2.9 µmol/kg. Further, the IC50 is given as 0.02 nM in test [3] and 0.7 nM in test [4]. The Change is given as -32% in [23] and -40% in test [24].
For the compound `Br.CO[C@@]12CCC(=O)[C@@H]3Oc4c(OCc5ccccc5)ccc5c4[C@@]31CCN(C)C2C5`, the ED50 in test [14] was 2.7 µmol/kg; in test [25], 5.3 µmol/kg. Moreover, the IC50 in test [3] was found to be 0.8 nM; in test [4], 9 nM. The Change in test [26] is on record as -38%; in test [27], -32%.
With `CN1CC[C@]23c4c5ccc(O)c4O[C@H]2[C@@H](O)C=C[C@H]3[C@H]1C5.Cl` [MORPHINE HYDROCHLORIDE], the Change is -43% in test [28] and 38.3% in [29]. Besides, it took a dose of 59 µmol/kg to reach the 50% effect level in test [30] (ED50).
On to `CO[C@@]12CCC(=O)C[C@@]13CCN(C)[C@@H]2Cc1ccccc13`, for which the ED50 came to 0.2 µmol/kg in test [1]; 2.3 µmol/kg in [5]; 2.2 µmol/kg in test [6]; 0.1 µmol/kg in [2]; 7 µmol/kg in test [31]. Besides, the IC50 in test [3] came to 0.2 nM; in test [4], 6 nM. Moreover, the Change in test [32] is given as -52%; in test [33], -48%.
